Here are results for 1 compound from article PMC2375285, “Inhibition of all-TRANS-retinoic acid metabolism by R116010 induces antitumour activity” (British Journal of Cancer, 2002).

The subject of data set [1] is RA metabolism in intact T47D cells. As to the kind of experiment: Microcolumn assay for RA metabolism in intact T47D cells. The data set is classed as cell-based, human. As for the experimental part:
RA metabolism was quantitatively determined using the microcolumn assay as described previously ([Krekels et al, 1997]). […] Cells were then washed twice with culture medium, harvested and resuspended at 4×10^6 cells ml^−1. An aliquot of this cell suspension (450 μl) was incubated for 90 min in the presence of 0.1 μM [11, 12-^3H(N)]RA, after which 2 ml acetonitrile was added. After centrifugation for 10 min at 780 g, the resulting deproteinized supernatant was acidified with 2.5 ml of 40 mM acetic acid and applied to a 3 ml C18 Bond Elut LRC column (Varian, Harbor City, CA, USA; pretreated with 4 ml distilled water) under a vacuum of 127 mmHg using VAC ELUT SPS-24 and the effluent was collected. The column was eluted with 1 ml 40% acetonitrile and the effluent was collected in the same vial. Radioactivity in the collected effluent, containing the polar metabolites, was determined in a Packard Tri-carb 4530 liquid scintillation analyzer. Optiphase ‘Hi Safe II’ (Wallac, Milton Keynes, UK) was used as a scintillator. Data are presented as mean±s.d. of three or four independent experiments. The IC50-values were calculated by non-linear regression analysis using SigmaPlot 4.01 software.

A further data set addresses T1, aromatase (CYP19) (Homo sapiens, UniProt P11511).
T1 construct: aromatase (CYP19) in human placental microsomes; from tissue; host or cells: human placenta, microsomes
T1 sequence (P11511 1-503): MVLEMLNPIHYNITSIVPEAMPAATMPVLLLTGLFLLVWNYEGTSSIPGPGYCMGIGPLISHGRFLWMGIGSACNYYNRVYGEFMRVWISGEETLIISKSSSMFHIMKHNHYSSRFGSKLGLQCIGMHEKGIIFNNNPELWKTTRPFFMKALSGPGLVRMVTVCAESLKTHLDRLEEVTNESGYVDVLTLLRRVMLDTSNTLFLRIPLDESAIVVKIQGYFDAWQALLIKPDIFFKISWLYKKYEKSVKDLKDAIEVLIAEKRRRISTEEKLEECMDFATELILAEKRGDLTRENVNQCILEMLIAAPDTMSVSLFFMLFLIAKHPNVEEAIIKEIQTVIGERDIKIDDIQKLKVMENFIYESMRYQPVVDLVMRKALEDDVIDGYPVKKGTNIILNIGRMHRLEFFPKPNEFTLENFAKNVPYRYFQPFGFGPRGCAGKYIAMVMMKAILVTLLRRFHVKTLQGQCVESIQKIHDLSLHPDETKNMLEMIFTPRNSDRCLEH
Kind of data set: Aromatase, conversion of androstenedione to estrone in human placental microsomes. The data set is classed as biochemical.

A further data set relates to T47D cells. As to the kind of experiment: T47D cell proliferation (MTT assay, 7 days). The data set is classed as cell-based, human. The following applies: for enhancement of the antiproliferative activity of RA: T47D cells. How it is done:
T47D cells were seeded in Falcon® 96-well cell culture plates (Life Technologies, Merelbeke, Belgium) at 2500 cells per well in a total volume of 150 μl. Cells were allowed to adhere to plastic for 24 h. Drugs and/or medium were added to a final volume of 200 μl (day 0). Cells were grown under these conditions for 7 days, with renewal of medium and drugs on days 2 and 5. On day 7, medium was renewed and 25 μl MTT-solution was added, and cells were further incubated for 2 h in a cell incubator. The medium was aspirated and 25 μl Sorensen glycine buffer (0.1 M glycine, 0.1 M NaCl; pH 10.5) was added together with 100 μl DMSO to solubilize the blue MTT-formazan product. […] Data are presented as mean±s.d. of three or four independent experiments. Within an experiment, the result of each experimental condition is the mean of six replicate wells. The IC50-values were calculated by non-linear regression analysis using SigmaPlot 4.01 software.
(Tetrazolium dyes change colour on reduction, which living cells bring about.)

The next data set can be described thus: in vivo. The following applies: mouse, po.
The next data set concerns TA3-Ha mammary tumours. As to the kind of experiment: TA3-Ha mammary carcinoma model.
The next data set deals with CYP3A. Kind of data set: Testosterone 6β-hydroxylase in rat liver microsomes. The following applies: probe testosterone. (Microsomes from liver hold many membrane-bound enzymes, among them those of drug oxidation.)

The structures appear in SMILES notation.

Experimental for CYP3A: (§1) The conversion of androstenedione to estrone by aromatase (CYP19) in human placental microsomes, the conversion of 17-hydroxy-20-dihydroprogesterone to testosterone by 17,20-lyase (CYP17) in rat testicular S10 fractions, and the 2α-, 7α-, 6β-, and 16β-hydroxylation of testosterone (CYP2C11, CYP2A1, CYP3A, CYP2B1/2) in rat liver microsomes were carried out as described ([Vanden Bossche et al, 1990]).
Experimental for TA3-Ha mammary tumours: (§2) Cells (1.5×10^6) were injected intraperitoneally in syngeneic A/J mice. […] Each group consisted of 10 animals for experiments with R116010 and of six animals for experiments with RA. All treatments were performed by oral gavage. […] The control groups were given the vehicle 20% 4-OH-β-cyclodextrine in sterile saline. Mice were daily examined for adverse drug effects. At the end of the experiments, subcutaneous tumours were excised 24 h after the last treatment and weighed to validate the antitumoural effects of the treatment.
(§3) Data are represented as box plots showing median group value, 25/75th percentile, 10/90th percentile and outliers. Groups were statistically compared to the vehicle-treated groups using the Mann–Whitney U-test. Significance was defined at the level of P<0.05.
Experimental for aromatase (CYP19): as §1
Experimental for in vivo: as §2, §3

A word on the IC50: it is the point on the concentration scale where inhibition reaches its midpoint. By inhibition is commonly meant the percentage by which the read-out fell short of the control. On to `C[C@@H]([C@H](c1ccc(Nc2nc3ccccc3s2)cc1)n1ccnc1)N(C)C` [R116010, [S-(R*,R*)]-N-[4-[2-(dimethylamino)-1-(1H-imidazole-1-yl)propyl]-phenyl]-2-benzothiazolamine], for which the half-inhibitory concentration (IC50) in data set [1] (Homo sapiens, intact T47D cells pretreated 16 h with 1 μM RA, 0.1 μM [3H]RA, 90 min, read-out: IC50 inhibition of formation of polar [3H]RA metabolites (RA metabolism)) was 0.0087 µM; against aromatase (CYP19) (Human placental microsomes), > 10 µM; with CYP3A, > 10 µM. Moreover, the “fold more potent than liarozole-fumarate as inhibitor of RA metabolism” value in data set [1] (intact T47D cells) is given as “over 100 fold”. Further, the inhibition at 10 μM on aromatase (CYP19) (10 μM R116010, human placental microsomes, read-out: percentage of inhibition, Aromatase (CYP19)) is 12%; in the data set on CYP3A it was 41%. In addition, the “enhancement of the antiproliferative activity of RA” value was 1.25 fold with T47D cells (0.01 μM R116010), 2.6 fold in the data set on T47D cells (0.1 μM R116010) and “three-fold” with T47D cells (1 μM R116010). In addition, the “effect on T47D cell proliferation by itself” value in the data set with T47D cells (compound alone, 7 days, MTT) is recorded as “no effect”. The same compound gave an MTD in “in vivo” of 5 mg/kg. Also, the body weight decrease with TA3-Ha mammary tumours (R116010 5 mg kg^−1, mice) was ~15%. Also, the toxicity findings result with TA3-Ha mammary tumours (at toxic dose: RA 5, R116010 5, liarozole fumarate 20 mg kg^−1) is “hair loss and bone fractures”. The therapeutic window in the data set with TA3-Ha mammary tumours (maximum tolerated dose versus lowest active dose, TA3-Ha model) was 30 fold. In addition, the “dose at which toxicity was observed” value in the data set on TA3-Ha mammary tumours (mice, oral, twice daily, toxicity related to hypervitaminosis A) is 5 mg/kg. In addition, the “fold more potent than liarozole-fumarate in TA3-Ha model” value in the data set on TA3-Ha mammary tumours (oral, twice daily) is “approximately 60 fold”. The “lowest active dose inhibiting TA3-Ha tumour growth” value in the data set on TA3-Ha mammary tumours (oral, twice daily, day 1 until day 21, tumour weight) came out at 0.16 mg/kg.
